Results reported in article PMC7899551, “Phase 1 study of Z-endoxifen in patients with advanced gynecologic, desmoid, and hormone receptor-positive solid tumors” (Oncotarget, 2021).
Entries after “also recorded” stand apart in the source; their conditions may differ.

Assays:
[1] = Urinary excretion of Z-endoxifen over a 24-hour collection; format: in vivo, human
Procedure: A 3-mL blood sample was collected in a K2 EDTA tube on day 1 of cycle 1 before drug administration and at the following times post-first dose: 0.5, 1, 2, 3, 4, 6, 8, and 24 hours. Samples were collected at the same time points on day 28 of cycle 1 for DL1-6 until a protocol amendment eliminated the requirement for these samples at the higher dose levels. Samples were wrapped in aluminum foil after collection to protect from light exposure. A 10-mL aliquot of urine was collected before agent administration on cycle 1 day 1, for 24 hours after dosing on day 1, and before drug administration on cycle 2 day 1; samples were refrigerated prior to analysis.
Plasma and urine concentrations of Z- and E-endoxifen were measured using a validated, post-column fluorescence derivatization HPLC assay. Non-compartmental pharmacokinetic parameters were calculated using WinNonlin version 7.0 (Pharsight Corp., Mountainview, CA, USA). A 2 μM Cmax target was established for day 28 plasma concentration. The amount of Z-endoxifen excreted in urine was measured over a 24-hour collection period.

[2] = test system: gynecologic tumors, desmoid tumors, hormone receptor-positive solid tumors; test: Clinical outcome (RECIST 1.1 response, cycles on study); format: in vivo, human; conditions: for prolonged disease stabilization: desmoid
Procedure: This study enrolled patients ≥ 18 years of age with gynecological tumors, desmoid tumors, histologically-documented HR+ (ER+/PR+, ER+/PR-, or ER-/PR+) breast cancer, or other solid tumors that were ER+ or PR+ by immunohistochemistry (any positive expression). […] All other patients must have progressed on at least one line of standard-of-care therapy.
Eye examinations were performed at baseline, every six months while on study, and if clinically indicated. CT scans were performed at baseline, and tumor response was assessed every 2 cycles (8 weeks; every 16 weeks for patients on study for more than 12 months) based on the Response Evaluation Criteria in Solid Tumors (RECIST) version 1.1 [39]. A confirmatory scan was performed after at least 4 weeks to confirm objective response.

ERα = target: T1, ERα (Homo sapiens, UniProt P03372); test: 18F-FES PET/CT imaging (blocking estrogen receptor binding); format: in vivo; conditions: after 1–5 days of oral treatment
T1 construct: from tissue; host or cells: patients' tumors in vivo, e.g. a pre-sacral soft tissue lesion of serous ovarian cancer
T1 sequence (P03372 1-595): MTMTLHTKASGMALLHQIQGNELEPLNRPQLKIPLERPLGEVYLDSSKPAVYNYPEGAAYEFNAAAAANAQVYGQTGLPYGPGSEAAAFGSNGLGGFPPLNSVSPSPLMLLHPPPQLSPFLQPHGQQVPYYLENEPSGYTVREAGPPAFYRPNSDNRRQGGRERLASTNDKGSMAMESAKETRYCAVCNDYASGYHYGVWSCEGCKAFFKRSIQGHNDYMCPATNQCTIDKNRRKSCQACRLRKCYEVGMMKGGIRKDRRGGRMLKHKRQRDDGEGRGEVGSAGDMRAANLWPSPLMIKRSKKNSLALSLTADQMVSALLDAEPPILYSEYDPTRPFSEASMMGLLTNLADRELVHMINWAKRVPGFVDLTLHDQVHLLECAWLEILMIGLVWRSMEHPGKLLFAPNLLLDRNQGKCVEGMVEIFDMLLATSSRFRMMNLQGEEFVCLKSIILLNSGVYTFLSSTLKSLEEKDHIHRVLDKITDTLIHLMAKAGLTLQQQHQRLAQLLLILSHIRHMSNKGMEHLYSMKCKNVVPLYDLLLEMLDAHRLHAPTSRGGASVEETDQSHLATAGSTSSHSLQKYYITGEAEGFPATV
Procedure: The pharmacodynamic effect of Z-endoxifen, blocking estrogen receptor binding, was assessed by ^18F-FES PET/CT imaging. […] Twenty patients in this trial agreed to be screened by ^18F-FES PET/CT imaging to assess ER status. Ten patients who were positive prior to treatment were re-imaged from 1 to 5 days after treatment initiation. We present here images taken after 3 days of treatment from a patient with serous ovarian cancer whose imaging has not previously been reported (patient 40, DL8, Figure 2). […] This patient developed a bowel obstruction during cycle 1 attributed to their disease and chose to come off study. Other images from patients in this trial have been previously reported.
The uptake of ^18F-FES was measured using PET/CT imaging in patients enrolled in the present trial before and after 1–5 days of treatment with oral Z-endoxifen HCl as previously described. Five additional patients were scanned following the publication of the imaging approach. The images presented here are from one of these 5 patients.

[3] = test system: ER+ metastatic breast cancer; set-up: method as in PMID 28854070; conditions: cited from earlier work
[4] = patient 7, fallopian tube cancer

CC/C(=C(\c1ccc(O)cc1)c1ccc(OCCNC)cc1)c1ccccc1 [Z-endoxifen]
amount excreted in the urine [1]: < 0.26 % of dose | mean number of cycles completed ([2]; 3 ER+/PR- breast cancer patients): 3.0 ± 2.6 cycles | mean number of cycles completed ([2]; 6 ER+/PR+ breast cancer patients): 6.7 ± 4.4 cycles | disease stabilizations of ≥ 6 cycles ([2]; 20 evaluable patients with gynecologic tumors (patients 20, 30, 31)): 3 patients | partial responses ([2]; 34 evaluable patients): Three patients had partial responses; also recorded: Three patients in this study experienced partial responses | patients with stable disease ≥ 6 cycles ([2]; 34 evaluable patients): 8 patients | treatment cycles on study, average ([2]; 34 evaluable patients): 7.2 cycles | treatment cycles on study, median ([2]; 34 evaluable patients): 4 cycles | treatment cycles on study, range ([2]; 34 evaluable patients): 1–62 cycles | Clinical Benefit (partial response or stable disease for at least 6 cycles) ([2]; Breast cancer (n = 9)): 4 patients | CBR (partial response or stable disease ≥ 6 cycles) ([2]; DL1 to DL5, 20 to 140 mg daily, 3/16 patients): 18.8% | CBR (partial response or stable disease ≥ 6 cycles) ([2]; DL6 to DL8, 200 to 360 mg daily, 8/18 patients): 44.4% | Clinical Benefit (partial response or stable disease for at least 6 cycles) ([2]; Desmoid (n = 4)): 3 patients | mean cycles completed on study ([2]; ER+ breast cancer): 5.1 ± 4.4 cycles | mean cycles on study ([2]; ER+ ovarian cancer, 4 patients): 4.0 ± 4.0 cycles | Clinical Benefit (partial response or stable disease for at least 6 cycles) ([2]; Fallopian tube cancer (n = 2)): 1 patients | Clinical Benefit (partial response or stable disease for at least 6 cycles) ([2]; Granulosa cell ovarian (n = 2)): 0 patients | Clinical Benefit (partial response or stable disease for at least 6 cycles) ([2]; Ovarian cancer (n = 9)): 2 patients | Clinical Benefit (partial response or stable disease for at least 6 cycles) ([2]; Total of Supplementary Table 1 (endometrial patient 31 not included)): 10 patients | overall CBR (partial response or stable disease ≥ 6 cycles) ([2]; all dose levels): 32.5% | CBR ([2]; hormone receptor-positive breast cancer, 4/9 patients): 44% | clinical response [2, 4]: partial response | cycles on study [2, 4]: 14 cycles | clinical response ([2]; patient 23, desmoid fibromatosis, prior progression on tamoxifen): partial response | prolonged disease stabilization ([2]; patient 28 (DL7)): 11 cycles | stable disease duration ([2]; patient 31, endometrial cancer): 7 cycles | clinical response ([2]; patient 33 (DL8), breast cancer): partial response | prolonged disease stabilization ([2]; patient 35 (DL8), prior progression on tamoxifen): 24 cycles | stable disease duration ([2]; patients 3, 10, and 21 (DL1, DL3, DL6), breast cancer): ≥ 6 cycles | CBR ([2]; patients with desmoid tumors, 3/4 patients): 75% | CBR ([2]; patients with gynecologic malignancies, 4/20 patients): 20% | mean cycles on study ([2]; undetermined ER status ovarian cancer, n = 5): 2.0 ± 1.2 cycles | 18F-FES tracer uptake on PET/CT (ERα): FES tracer uptake could be reduced | Plasma concentration on day 1 ([3]; 160 mg dose, 38 patients with ER+ metastatic breast cancer): 333 ng/mL | overall CBR ([3]; previous trial, highest dose 160 mg/day): 26.3%
